From patent US12521375B2, “Pharmaceutical composition for treating fatty liver disease” (Shionogi & Co., Ltd., priority 2020, dated 2026)
pIC50: −log10 of the molar value. Where “and” joins values, the source holds several entries; their conditions need not be identical. Equal entries are not always repeated.

Experiments:
[1] = Metabolic stability test (human); type: in vitro ADME; conditions: human liver microsomes, 37° C., 30 minutes, NADPH
Experimental: (§1) Commercially available pooled human liver microsomes were reacted with the compound of the present invention for a given time. A residual rate was calculated by comparison between the reacted sample and the unreacted sample to evaluate a degree at which the compound of the present invention is metabolized in the liver.
(§2) The compound was reacted at 37° C. for 0 minutes or 30 minutes in the presence of 1 mmol/L NADPH in 0.2 mL of a buffer (50 mmol/L Tris-HCl pH 7.4, 150 mmol/L potassium chloride, and 10 mmol/L magnesium chloride) containing 0.5 mg protein/mL of the human liver microsomes (oxidative reaction). After the reaction, 50 μL of the reaction solution was added to 100 μL of a solution of methanol/acetonitrile=1/1 (v/v) and mixed, and the mixture was centrifuged at 3000 rpm for 15 minutes. The compound of the present invention in the centrifuged supernatant was quantified by LC/MS/MS or solid-phase extraction (SPE)/MS. The amount of the compound of the present invention remained after the reaction was calculated with the amount of the compound at 0 minutes of the reaction defined as 100%.

[2] = target: recombinant human ACC1 (Homo sapiens (Human), UniProt Q13085); assay: Measurement of inhibitory activity of human ACC1; type: biochemical; conditions: read-out: IC50 hACC1
Description: A cDNA encoding human ACC1 protein (1 amino acid residue to 2346 amino acid residues from the N-terminus) was cloned from a human liver cDNA library (BioChain Institute Inc.), myc tag and His-tag sequences were introduced at the 3′ end, and then inserted into pIEXBAC3 (Novagen). A recombinant baculovirus was produced in accordance with the protocol for FlashBACGOLD (Oxford Expression Technologies Ltd.), and Sf-9 cells were infected therewith to express human ACC1 protein. The recovered cells were crushed, filtered through a filter, and then subjected to Ni affinity chromatography and anion exchange chromatography. Fractions containing human ACC1 protein were collected to obtain recombinant human ACC1.
The recombinant human ACC1 and the recombinant human ACC2 obtained from the above Preparation Examples were preincubated in an assay buffer (50 mM HEPES-KOH (pH 7.4), 10 mM magnesium chloride, 6 to 10 mM potassium citrate, 4 mM reduced glutathione, and 1.5 mg/ml bovine serum albumin) for 1 hour. Then, 5 μL of the pre-incubated enzyme solution and 5 μL of a substrate solution (50 mM HEPES-KOH (pH 7.4), 1 mM ATP, 0.8 mM acetyl-CoA, and 25 to 50 mM potassium bicarbonate) were added to a 384-well microplate into which 0.2 μL of each of solutions of the compound of the present invention (DMSO) had been dispensed, and the mixture was centrifuged and shaken, and then incubated in a wet box at room temperature for 1 to 3 hours. After incubation, the enzymatic reaction was stopped by addition of EDTA, and then the compound was co-crystallized with an α-cyano-4-hydroxy cinnamic acid (CHCA) matrix on a MALDI target plate, and measurement was performed in a reflector negative mode using a matrix-assisted laser desorption ionization-time-of-flight mass spectrometer (MALDI-TOF MS). Deprotonated ions of the substrate acetyl-CoA (AcCoA) and the reaction product malonyl-CoA (MalCoA) were detected, and the intensity of each signal was used to calculate a conversion rate to malonyl-CoA […], i.e., intensity of [MalCoA-H]-/(intensity of [MalCoA-H]-+intensity of [AcCoA-H]-). […] The potassium citrate concentration in the assay buffer, the potassium bicarbonate concentration in the substrate solution, and the incubation time were adjusted within the above concentrations or reaction times for each lot of the enzyme to be used.

[3] = tested on: high-fat diet-loaded mice with spontaneous fatty liver; assay: Effect on liver fibrosis progression in high-fat diet-loaded mice with spontaneous fatty liver; type: in vivo, FLS.B6-Lep<ob>/Shi mice; parameters: 3-hydroxybutyric acid in plasma: unit not given here; conditions: for Amount of triglyceride in liver / Sirius red-positive area rate / 3-hydroxybutyric acid in plasma / Plasma triglyceride concentration / Change in hemoglobin A1c (day 26 of administration) − (before start of administration) / Hemoglobin A1c, Before start of administration / Hemoglobin A1c, Day 26 of administration: bid; for Amount of triglyceride in liver / Sirius red-positive area rate: oral, 4 weeks; for Change in hemoglobin A1c (day 26 of administration) − (before start of administration) / Hemoglobin A1c, Before start of administration / Hemoglobin A1c, Day 26 of administration: individual animals
Experimental: Eight-week-old male FLS.B6-Lep/Shi mice were fed a high-fat diet (60 kcal % fat content, using shortening, containing 2% cholesterol and 8.7% fructose), and at the same time, the compound of the present invention was suspended in a 0.5% MC aqueous solution so as to have a dose of 5.5 to 60 mg/kg/5 mL, and orally repeatedly administered (b.i.d.) for 4 weeks. Blood was collected from the tail vein during the repeated administration period, and biochemical parameters in plasma were measured. After 4 weeks of administration, blood was collected from the abdominal vena cava under anesthesia, and then the liver was collected. Paraffin-embedded sections prepared from the collected liver were subjected to Sirius red staining. A degree of fibrosis progression in the liver was determined from a Sirius red-positive area rate and evaluated.

[4] = Tissue distribution test; type: in vivo, Crl:CD (SD) rats; conditions: rats, intravenous 0.5 mg/kg, 30 minutes after administration
Experimental: To 8-week-old male Crl:CD (SD) rats, the compound of the present invention was intravenously administered at a dose of 0.5 mg/mL/kg under non-fasted conditions, and 30 minutes after administration, the rats were killed by exsanguination through whole blood collection from the abdominal aorta under anesthesia. Then, the liver and muscles were removed, and a 25% homogenate was prepared with distilled water. The obtained blood was centrifuged, and plasma was then obtained. Then, control plasma and control tissue homogenate were added to the tissue homogenate sample and the plasma sample, respectively, at 1:1, and each sample was measured using LC/MS/MS. The measured area ratio (tissue/plasma) obtained was used as a tissue Kp value. For compound I-12, the value was 6.10 in the liver and 1.29 in muscles, and for compound I-13, the value was 4.06 in the liver and 0.918 in muscles. Therefore, the compound of the present invention has a property of being distributed in the liver and muscles in vivo.

[5] = Metabolic stability test (rat); type: in vitro ADME
Experimental: [Worded in the source for another species; this species is reported under the same test.] as §1, §2

In the case of C[C@@H](CO[C@H]1CC[C@H](Oc2nc3c(F)cc(OC4CC4)cc3n2C)CC1)NC(N)=O [Compound I-12], the “Amount of compound remained, Human” value [1] was 83.3%, the pIC50 [2] was 5.16 and the “Amount of triglyceride in liver” value ([3]; 5.5 mg/kg) was 451 ± 17 mg/g tissue. The “Sirius red-positive area rate” value ([3]; 5.5 mg/kg) was 1.26 ± 0.13 %, the “3-hydroxybutyric acid in plasma” value ([3]; 5.5 mg/kg, Week 0) was 184 ± 20 and the Plasma triglyceride concentration ([3]; 5.5 mg/kg, Week 0) was 790 ± 95 mg/dL. For the same compound, the “3-hydroxybutyric acid in plasma” value ([3]; 5.5 mg/kg, Week 1) was 470 ± 93, the Plasma triglyceride concentration ([3]; 5.5 mg/kg, Week 1) was 369 ± 32 mg/dL and the “3-hydroxybutyric acid in plasma” value ([3]; 5.5 mg/kg, Week 2) was 1108 ± 120. The Plasma triglyceride concentration ([3]; 5.5 mg/kg, Week 2) was 464 ± 30 mg/dL, the “3-hydroxybutyric acid in plasma” value ([3]; 5.5 mg/kg, Week 4) was 1354 ± 170 and the Plasma triglyceride concentration ([3]; 5.5 mg/kg, Week 4) was 513 ± 23 mg/dL. The “Amount of triglyceride in liver” value ([3]; 11 mg/kg) was 441 ± 11 mg/g tissue, the “Sirius red-positive area rate” value ([3]; 11 mg/kg) was 1.52 ± 0.18% and the “3-hydroxybutyric acid in plasma” value ([3]; 11 mg/kg, Week 0) was 178 ± 8.7. The Plasma triglyceride concentration ([3]; 11 mg/kg, Week 0) was 619 ± 76 mg/dL, the “3-hydroxybutyric acid in plasma” value ([3]; 11 mg/kg, Week 1) was 449 ± 140 and the Plasma triglyceride concentration ([3]; 11 mg/kg, Week 1) was 382 ± 44 mg/dL. For the same compound, the “3-hydroxybutyric acid in plasma” value ([3]; 11 mg/kg, Week 2) was 1314 ± 370, the Plasma triglyceride concentration ([3]; 11 mg/kg, Week 2) was 497 ± 39 mg/dL and the “3-hydroxybutyric acid in plasma” value ([3]; 11 mg/kg, Week 4) was 1508 ± 380. The Plasma triglyceride concentration ([3]; 11 mg/kg, Week 4) was 500 ± 27 mg/dL, the “Sirius red-positive area rate vs vehicle administration group (in words)” value ([3]; dose of 5.5 mg/kg) was “significantly lower than that of the vehicle administration group” and the “amount of triglyceride in the liver vs vehicle administration group (in words)” value ([3]; mouse, in vivo) was “not significantly different from that in the vehicle administration group”. The “concentration of 3-hydroxybutyric acid in plasma vs vehicle administration group (in words)” value ([3]; mouse, in vivo) was “tended to be higher than that in the vehicle administration group”, the “plasma triglyceride concentration vs vehicle administration group (in words)” value ([3]; mouse, in vivo) was “not significantly different from that in the vehicle administration group” and the “tissue Kp value (tissue/plasma), liver” value [4] was 6.10. For the same compound, the “tissue Kp value (tissue/plasma), muscles” value [4] was 1.29 and the “Amount of compound remained, Rat” value [5] was 85.5%.

In the case of CC(=O)N[C@@H](C)CC[C@H]1OC[C@H](Oc2nc3c(F)cc(OC4CC4)cc3n2C)CO1 [Compound I-13], the “Amount of compound remained, Human” value [1] was 95.4%, the pIC50 [2] was 6.04 and the “Amount of triglyceride in liver” value ([3]; 30 mg/kg) was 234 ± 21 mg/g tissue. The “Sirius red-positive area rate” value ([3]; 30 mg/kg) was 3.05 ± 0.28 %, the “3-hydroxybutyric acid in plasma” value ([3]; 30 mg/kg, Week 0) was 252 ± 73 and the Plasma triglyceride concentration ([3]; 30 mg/kg, Week 0) was 680 ± 81 mg/dL. The “3-hydroxybutyric acid in plasma” value ([3]; 30 mg/kg, Week 1) was 397 ± 140, the Plasma triglyceride concentration ([3]; 30 mg/kg, Week 1) was 299 ± 27 mg/dL and the “3-hydroxybutyric acid in plasma” value ([3]; 30 mg/kg, Week 4) was 1888 ± 570. The Plasma triglyceride concentration ([3]; 30 mg/kg, Week 4) was 600 ± 59 mg/dL, the “Change in hemoglobin A1c (day 26 of administration) − (before start of administration)” value (“Change in hemoglobin A1c” below) ([3]; 30 mg/kg) was 1.10% and 2.61% and 0.359% and 0.580% and 0.200% and 1.37% and 0.484% and 1.14% and 1.05% and the “Hemoglobin A1c, Before start of administration” value (“Hemoglobin A1c, Before start” below) ([3]; 30 mg/kg) was 6.40% and 6.59% and 6.70% and 6.32% and 7.03% and 7.49% and 7.05% and 6.78% and 6.28%. The “Hemoglobin A1c, Day 26 of administration” value ([3]; 30 mg/kg) was 7.50% and 9.21% and 7.05% and 6.90% and 7.23% and 8.86% and 7.54% and 7.91% and 7.32%, the “Amount of triglyceride in liver” value ([3]; 45 mg/kg) was 211 ± 19 mg/g tissue and the “Sirius red-positive area rate” value ([3]; 45 mg/kg) was 2.65 ± 0.34 %. The “3-hydroxybutyric acid in plasma” value ([3]; 45 mg/kg, Week 0) was 291 ± 130, the Plasma triglyceride concentration ([3]; 45 mg/kg, Week 0) was 644 ± 89 mg/dL and the “3-hydroxybutyric acid in plasma” value ([3]; 45 mg/kg, Week 1) was 829 ± 490. For the same compound, the Plasma triglyceride concentration ([3]; 45 mg/kg, Week 1) was 279 ± 40 mg/dL, the “3-hydroxybutyric acid in plasma” value ([3]; 45 mg/kg, Week 4) was 1803 ± 640 and the Plasma triglyceride concentration ([3]; 45 mg/kg, Week 4) was 572 ± 54 mg/dL. The “Change in hemoglobin A1c” value ([3]; 45 mg/kg) was 0.591% and 0.429% and −0.888% and −0.504% and 2.17% and 0.162% and 0.562% and 1.50% and 0.667%, the “Hemoglobin A1c, Before start” value ([3]; 45 mg/kg) was 6.58% and 6.74% and 7.06% and 5.77% and 5.87% and 7.03% and 6.43% and 6.83% and 7.47% and the “Hemoglobin A1c, Day 26 of administration” value ([3]; 45 mg/kg) was 7.17% (2×) and 6.17% and 5.26% and 8.04% and 7.19% and 6.99% and 8.33% and 8.13%. The “Amount of triglyceride in liver” value ([3]; 60 mg/kg) was 235 ± 20 mg/g tissue, the “Sirius red-positive area rate” value ([3]; 60 mg/kg) was 2.75 ± 0.36 % and the “3-hydroxybutyric acid in plasma” value ([3]; 60 mg/kg, Week 0) was 217 ± 28. The Plasma triglyceride concentration ([3]; 60 mg/kg, Week 0) was 829 ± 97 mg/dL, the “3-hydroxybutyric acid in plasma” value ([3]; 60 mg/kg, Week 1) was 351 ± 72 and the Plasma triglyceride concentration ([3]; 60 mg/kg, Week 1) was 322 ± 30 mg/dL. For the same compound, the “3-hydroxybutyric acid in plasma” value ([3]; 60 mg/kg, Week 4) was 1260 ± 170, the Plasma triglyceride concentration ([3]; 60 mg/kg, Week 4) was 641 ± 86 mg/dL and the “Change in hemoglobin A1c” value ([3]; 60 mg/kg) was 0.493% and 0.0708% and 0.696% and 0.463% and 0.150% and −0.0552% and 0.719% and −0.0504%. For the same compound, the “Hemoglobin A1c, Before start” value ([3]; 60 mg/kg) was 5.50% and 6.36% and 6.46% and 6.60% and 7.12% and 6.80% and 6.55% and 5.83%, the “Hemoglobin A1c, Day 26 of administration” value ([3]; 60 mg/kg) was 5.99% and 6.43% and 7.16% and 7.06% and 7.27% (2×) and 6.74% and 5.78% and the “Sirius red-positive area rate vs vehicle administration group (in words)” value ([3]; dose of 30, 45, or 60 mg/kg) was “significantly lower than that of the vehicle administration group”. For the same compound, the “amount of triglyceride in the liver vs vehicle administration group (in words)” value ([3]; mouse, in vivo) was “not significantly different from that in the vehicle administration group”, the “concentration of 3-hydroxybutyric acid in plasma vs vehicle administration group (in words)” value ([3]; mouse, in vivo) was “tended to be higher than that in the vehicle administration group” and the “hemoglobin A1c (in words)” value ([3]; mouse, in vivo) was “tended to suppress an increase in hemoglobin A1c”. For the same compound, the “plasma triglyceride concentration vs vehicle administration group (in words)” value ([3]; mouse, in vivo) was “not significantly different from that in the vehicle administration group”, the “tissue Kp value (tissue/plasma), liver” value [4] was 4.06 and the “tissue Kp value (tissue/plasma), muscles” value [4] was 0.918. For the same compound, the “Amount of compound remained, Rat” value [5] was 87%.
